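Cultured in 96-well plates, cells were exposed to test compound for 48 hours across five concentrations. Here, GI50 denotes the concentration required for 50% inhibition of growth. TGI: concentration producing complete growth inhibition.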

The subject of one assay is HT29 colon. As to the kind of experiment: DTP human tumour cell line panel, 48 h.
Take `COc1ccc(-c2nn3c(-c4cc(F)c(Cl)cc4Cl)nnc3s2)cc1`: the GI50 is 18.5 µM and the TGI came to 44.3 µM.
Regarding `COc1ccc2nc(-c3cccs3)cc(C(O)CN3CCSCC3)c2c1` (stereo not drawn), the TGI is 74 µM.
Same read-out and setting: the same measure for `O=C(CN1CCOCC1)Nc1nc(-c2ccc(Cl)cc2)cs1`: more than 100 µM; for `COc1cc(C(=O)C/C(CCCC(=O)Nc2ccccc2[N+](=O)[O-])=N/NC(=O)c2cc3ccccc3cc2O)ccc1O`: more than 100 µM.
Still for that read-out and setting: the same measure for `CN(C)CCCNC(CC#N)CCC#N` (stereo not drawn): more than 10 µM; for `CN(C)C(=O)OC(Cn1cncn1)c1ccc(Cl)cc1Cl` (stereo not drawn): more than 100 µM.
Turning to `CN(C)CCNc1c2c(c(NCCN(C)C)c3[nH]ccc13)C(=O)c1ccccc1C2=O`, the GI50 was 0.465 µM.
In turn, `CCOC(=O)COc1ccccc1/C=C1\CCC(CN(C)C)C1=O` (stereo not drawn) came in with a TGI of 22.6 µM.
`CC1=Nc2ccccc2S/C1=C(/C)NNC(=O)C(N)=O` had a TGI of more than 100 µM.
On the same count and under the same terms, the result for `Nn1c(NNC(=O)C(=O)Nc2cc(Cl)c(Cl)cc2Cl)n[nH]c1=S` reads more than 100 µM; that for `Cc1[nH]ccc2c1[nH]c1cc(=O)ccc12`, more than 100 µM.
Consider `NCCOCCOCCNc1nc(Cc2ccccc2)nc(NCCCN2CCCC2=O)n1`, for which the GI50 is more than 100 µM and the TGI is more than 100 µM.
`NC1C[C@H](n2cc(/C=C/Br)c(=O)[nH]c2=O)C[C@@H]1CO` (stereo partly drawn) displayed a TGI of more than 100 µM.
As to `Oc1cccc2ccc(N/N=C/c3cc(CN4CCCCC4)c(O)c4ncccc34)nc12`, the GI50 was 0.324 µM and the TGI was 1.46 µM.
In turn, `O=C1CC(c2ccc(O)cc2)C2(O1)C(=O)OC(C(O)CO)C2O` (stereo not drawn) displayed a TGI of more than 100 µM.
Still for that read-out and setting: the same measure for `CC1=C(C)C(=O)c2c(cc3ccccn23)C1=O`: 36.6 µM; for `CC1SC2=NC3=C(c4ccccc4C3=O)C(c3ccc(F)cc3)N2C1=O` (stereo not drawn): more than 100 µM.
On to `COC(C(=O)[O][Ge]([CH3])([CH3])[CH3])c1ccccc1` (stereo not drawn), for which the GI50 is more than 100 µM and the TGI is more than 100 µM.
For the molecule `CC1C=C(OC(=O)c2ccccc2)C(=O)C(n2cc(F)c(=O)[nH]c2=O)O1` (stereo not drawn), the TGI is more than 100 µM.
Consider `Nc1ccccc1C#C/C=C\C#Cc1cccs1`, for which the GI50 was 20.3 µM and the TGI came to 57.3 µM.
In the same order, the values of `COc1ccc(-c2ccc(/C=N/n3c(COc4ccc(Cl)cc4Cl)nn(CN4CCOCC4)c3=S)o2)c([N+](=O)[O-])c1` are 42 µM and more than 100 µM.
In the case of `CCN(CC)c1ccc(C(=O)c2ccccc2C(=O)O)c(O)c1`, the TGI was more than 100 µM.
Molecule `COc1ccc(OC)c(NC(=O)C2=C(C)NC(C)=C(C(=O)Nc3cc(OC)ccc3OC)C2c2ccccc2)c1` returned a TGI of more than 100 µM.

Another assay deals with TK-10 renal. As to the kind of experiment: DTP human tumour cell line panel, 48 h.
Consider `COc1ccc(-c2nn3c(-c4cc(F)c(Cl)cc4Cl)nnc3s2)cc1`, for which the GI50 is 56.5 µM and the TGI is more than 100 µM.
Regarding `COc1ccc2nc(-c3cccs3)cc(C(O)CN3CCSCC3)c2c1` (stereo not drawn), the TGI stood at 91.8 µM.
In the case of `O=C(CN1CCOCC1)Nc1nc(-c2ccc(Cl)cc2)cs1`, the TGI is more than 100 µM.
Same read-out and setting: the same measure for `COc1cc(C(=O)C/C(CCCC(=O)Nc2ccccc2[N+](=O)[O-])=N/NC(=O)c2cc3ccccc3cc2O)ccc1O`: more than 100 µM.
`CN(C)CCCNC(CC#N)CCC#N` (stereo not drawn): the TGI was more than 10 µM.
Still for that read-out and setting: the result for `CN(C)C(=O)OC(Cn1cncn1)c1ccc(Cl)cc1Cl` (stereo not drawn) reads more than 100 µM.
On to `CN(C)CCNc1c2c(c(NCCN(C)C)c3[nH]ccc13)C(=O)c1ccccc1C2=O`, for which the GI50 was 1.57 µM and the TGI was 5.14 µM.
In turn, `CCOC(=O)COc1ccccc1/C=C1\CCC(CN(C)C)C1=O` (stereo not drawn) showed a TGI of 25.6 µM.
In turn, `CC1=Nc2ccccc2S/C1=C(/C)NNC(=O)C(N)=O` came in with a TGI of more than 100 µM.
On the same count and under the same terms, the same measure for `Nn1c(NNC(=O)C(=O)Nc2cc(Cl)c(Cl)cc2Cl)n[nH]c1=S`: more than 100 µM.
In turn, `Cc1[nH]ccc2c1[nH]c1cc(=O)ccc12` gave a TGI of more than 100 µM.
On the same count and under the same terms, the result for `NC1C[C@H](n2cc(/C=C/Br)c(=O)[nH]c2=O)C[C@@H]1CO` (stereo partly drawn) reads more than 100 µM.
As for `Oc1cccc2ccc(N/N=C/c3cc(CN4CCCCC4)c(O)c4ncccc34)nc12`, the GI50 was 0.0527 µM and the TGI amounted to 11 µM.
In turn, `O=C1CC(c2ccc(O)cc2)C2(O1)C(=O)OC(C(O)CO)C2O` (stereo not drawn) had a TGI of more than 100 µM.
On the same count and under the same terms, the same measure for `CC1=C(C)C(=O)c2c(cc3ccccn23)C1=O`: 55.9 µM.
On to `COc1ccc(-c2n/c(=C\c3c(O)[nH]c4ccc(OC)cc34)cc3c2=Nc2ccccc2-3)cc1`, for which the GI50 is 2.09 µM and the TGI came to 3.87 µM.
The molecule `CC1SC2=NC3=C(c4ccccc4C3=O)C(c3ccc(F)cc3)N2C1=O` (stereo not drawn) had a TGI of more than 100 µM.
Regarding `COC(C(=O)[O][Ge]([CH3])([CH3])[CH3])c1ccccc1` (stereo not drawn), the GI50 is more than 100 µM and the TGI was more than 100 µM.
`CCCCC(CC)CN=C(N)NC(N)=NCCCCCCN=C(N)NC(N)=NCC(CC)CCCC` (stereo not drawn): the GI50 was 4.03 µM and the TGI is more than 100 µM.
On to `CC1C=C(OC(=O)c2ccccc2)C(=O)C(n2cc(F)c(=O)[nH]c2=O)O1` (stereo not drawn), for which the TGI is more than 100 µM.
Regarding `Nc1ccccc1C#C/C=C\C#Cc1cccs1`, the GI50 is 17.3 µM and the TGI came to 39.8 µM.
For `COc1ccc(-c2ccc(/C=N/n3c(COc4ccc(Cl)cc4Cl)nn(CN4CCOCC4)c3=S)o2)c([N+](=O)[O-])c1` the same measures were 14.1 µM and 49.2 µM.
`CCN(CC)c1ccc(C(=O)c2ccccc2C(=O)O)c(O)c1`: the TGI was more than 100 µM.
On the same count and under the same terms, the result for `COc1ccc(OC)c(NC(=O)C2=C(C)NC(C)=C(C(=O)Nc3cc(OC)ccc3OC)C2c2ccccc2)c1` reads more than 100 µM.

In another assay the test system is M14 melanoma. As to the kind of experiment: DTP human tumour cell line panel, 48 h.
`COc1ccc(-c2nn3c(-c4cc(F)c(Cl)cc4Cl)nnc3s2)cc1`: the GI50 was 25.6 µM and the TGI came to 95.9 µM.
`COc1ccc2nc(-c3cccs3)cc(C(O)CN3CCSCC3)c2c1` (stereo not drawn): the TGI worked out at 40.6 µM.
Still for that read-out and setting: the result for `O=C(CN1CCOCC1)Nc1nc(-c2ccc(Cl)cc2)cs1` reads more than 100 µM; that for `COc1cc(C(=O)C/C(CCCC(=O)Nc2ccccc2[N+](=O)[O-])=N/NC(=O)c2cc3ccccc3cc2O)ccc1O`, 50.2 µM.
The molecule `CN(C)CCCNC(CC#N)CCC#N` (stereo not drawn) had a TGI of more than 10 µM.
For `CN(C)C(=O)OC(Cn1cncn1)c1ccc(Cl)cc1Cl` (stereo not drawn), the TGI was more than 100 µM.

Source of the values: PubChem BioAssay (NCI).
